The values that follow come from patent publication US20240336923A1, “DNAZYMES TARGETING CELL WALL SYNTHESIS ENZYMES AND USES THEREOF” (priority 2021, published 2024).

Common to all, as to type: cell-based
The test system of series [1] is Pseudomonas aeruginosa (MDR-PA, ATCC® BAA-3105™) biofilm. The experiment in a line: Biofilm formation assays (crystal violet and CFU). Conditions: TSB, 96 wells, DNAzyme 2.5 μM, 16 hours; for biofilm formation (crystal violet): FIG. 4A; for viable cells within the biofilm (CFU): FIG. 4B. Here is the method:
FIGS. 4A-B are graphs showing reduction in bacterial density (FIG. 4A) or colony-forming units (FIG. 4B) (vertical axis) in biofilms grown either with or without the indicated DNAzymes (2.5 μM) in 96 wells with tryptic soy broth (TSB) for 16 hours, after which non-adhered cells were removed, and biofilms were washed and stained with 0.1% crystal violet (FIG. 4A) or replating (FIG. 4B). Average and standard mean are depicted by horizontal bars and brackets. Scr is a control scramble DNAzyme (Scr nucleotide sequence is 5′-[…]/3CholTEG/; SEQ ID NO: 44). NT is No Treatment.
Biofilm assays. Bacterial strains were streaked from frozen LB+glycerol stocks onto LB agar plates and incubated for 24 h at 37° C. Single colonies were grown overnight at 37° C. in 3 ml of LB. Cultures were diluted 1:100 in TSB in a 96-well plate, and DNAzymes were added to a final concentration of 2.5 μM. Cultures were incubated at 37° C. without shaking for 16 hours. Non-adherent cells were removed, and biofilms were washed with PBS and either stained with crystal violet (0.1%), or biofilm cells were extracted using mild sonication (2-4 pulses of 5 seconds, amplitude 30%) for CFU determination. CFU was measured using serial dilutions of the bacterial suspensions and spots were plated on LB plates. CFU was determined as above.
To measure the ability of DNAzymes that target a transcript encoding a cell wall biosynthesis enzyme, to affect biofilm formation, bacteria were grown in TSB on plates, under conditions that favor biofilm formation. Representative DNAzymes tested included murG-162, murG-207, and murG-366.

Series [2] has the same test system. The series is described as follows: Scanning electron microscopy of biofilms grown with DNAzymes. Conditions: stainless steel mesh, TSB, DNAzyme 1.25 μM twice, 48 hours; FIG. 5C. As for the experimental part: FIGS. 5A-5C: Biofilm macrostructure and morphology of single bacterial cells are affected by DNAzymes targeting murG. Biofilms were grown on top of dense stainless steel mesh in TSB in 12 well plates with or without indicated DNAzymes (1.25 μM). 24 hours afterwards, an additional dose of DNAzymes was added to treated samples. Following 48 hours of overall inoculation, biofilms were fixated and dehydrated. The mesh with associated biofilms was imaged with scanning electron microscopy (SEM). The results are of a representative field of 3 independent repeats. (FIG. 5A). NT, scr, and murG162 as above) (FIG. 5B) Enlargements of representative zones, enabling detection of single-cell morphologies. (FIG. 5C) Overall measurements of the maximal thickness of dehydrated biofilms. (NT, scr, and murG162 as above)
To determine the effects of the representative DNAzymes on macro- and microstructure of treated biofilms, 3D structures of treated and untreated biofilms were examined using scanning electron microscopy (SEM).
To study the effects of DNAzyme treatment on biofilm structure, 3D topographies of the biofilms were generated to compare multiple areas of the biofilm. The biofilms were dehydrated, resulting in a uniform loss of volume percentage.

For series [3], the system named is Pseudomonas aeruginosa strain ATCC® BAA-3105™. The experiment in a line: Intracellular DNAzyme quantification in bacteria grown in media (qPCR / flow cytometry). Conditions: LB + 32 μg/ml meropenem, 1.25 μM DNAzyme, 4 hours. As for the experimental part:
FIGS. 2A-2D. Uptake of fluorescent DNAzyme in media mimicking in vivo conditions, in the presence of subtoxic concentrations of meropenem as judged by flow cytometry. […] FIG. 2B is a graph showing the copy number of fluorescent murG-207 DNAzymes (Dz) per bacterium, as measured by flow cytometry. FIG. 2C is a graph showing uptake of fluorescent murG-207 DNAzyme in bacterial cells in a biofilm. Bacteria were grown under conditions favoring biofilm formation in TSB for 24 hours. Biofilm cells were separated from non-adhered cells, incubated with fluorescent murG-207 DNAzyme for 2 hours, and analyzed by flow cytometry. FIG. 2D is a graph showing uptake of DNAzymes in bacterial colonizing lung tissue samples (mouse lungs from naïve healthy mice). MDR-PA were grown with lung samples in DMEM with meropenem for 24 hours. […] In the histograms shown in FIGS. 2A, 2C, and 2D, arrows indicate which lines represent the basal fluorescence levels of the bacteria, and fluorescence of murG-207 DNAzyme with 3′cholesterol-TEG modification.
Flow cytometry. […] Data was analyzed using Kaluza Analysis 2.1 software using a C6 import module.
Intracellular DNAzyme quantification from bacterial cells. […] For intracellular extraction of the DNAzymes, cells were incubated for 10 minutes at 95° C., and supernatants were collected for quantification of intracellular DNAzymes. […]
On the technique in general: In qPCR the cycle at which signal appears reflects the starting amount.

Series [4] deals with Pseudomonas aeruginosa (MDR-PA, ATCC® BAA-3105™) pre-established biofilm. The series is described as follows: DNAzyme treatment of pre-established biofilms without or with meropenem (CFU, SEM). The settings on record: DNAzyme 2.5 μM, 8 hours; for effect on meropenem activity against pre-established biofilms: PBS + 10 μM meropenem, FIG. 6B; for reduction of biofilm biomasses: mature 24 h biofilms, without or with meropenem, FIGS. 6A-6B. Here is the method: FIGS. 6A-6C: DNAzymes can reduce viability and increase antibiotic sensitivity of cells from pre-established biofilms. Biofilms were grown in TSB in 12 well plates. 24 hours later, the medium was replaced with PBS (FIG. 6A) or with PBS+10 μM meropenem (FIG. 6B) in the presence or absence of the indicated DNAzymes, murG-162 or SCR (scramble control), […]. Following 8 hours, the adherent remaining cells were extracted, and the number of CFU was determined. (FIG. 6C) Biofilms were grown as described for FIG. 6B. The mesh with associated biofilms was imaged with SEM.
The effect of DNAzymes targeting murG on pre-established biofilms was studied by comparing the application of PBS, scrambled DNAzyme control (SCR), or indicated DNAzymes (162-murG, 207-murG, and 366-murG) on mature biofilms without or with the beta-lactam meropenem (FIGS. 6A-6B, respectively).
These findings were confirmed by SEM. Biofilms treated with sub-lethal concentrations of meropenem with control SCR DNAzyme were […] and had more texture. […] FIG. 6C presents an example of these findings, wherein SCR DNAzyme treated samples were compared to biofilms treated with murG162+meropenem.

{CholTEG} = cholesterol-triethylene glycol

As to “5′-ACCACAATACCGAGATCGGTCGTGTCGGCATGA/3CholTEG/ (DNA, 3' {CholTEG}, backbone and methylation of C not given here) [Scr, control scramble DNAzyme, reference compound]”, in series [1], the “biofilm formation (crystal violet)” value was “did not show inhibition of biofilm formation” and the “viable cells within the biofilm (CFU)” value is recorded as “did not show inhibition of biofilm formation or a reduction of viable cells”. Further, the “occurrence of areas thicker than 10 μm in dehydrated biofilms” value in series [2] is “composed of areas thicker than 10 μm, areas of about 10 μm, and significantly thinner areas”.
For “5′-CTTGACCAG ggctagctacaacga GACTTCAGG-Chol-TEG-3′ (DNA CTTGACCAGGGCTAGCTACAACGAGACTTCAGG; DNA, 3' {CholTEG}, backbone and methylation of C not given here) [murG-207, 10-23 DNAzyme targeting murG RNA transcript, cleavage site nt 207, 3′ cholesterol-TEG]”, the “average copy number of DNAzymes per cell” value in series [3] is recorded as “over 10,000 DNAzymes per cell”. In addition, in series [1], the “biofilm formation (crystal violet)” value is reported as “biofilm inhibition” and the “viable cells within the biofilm (CFU)” value is listed as “significant reduction of viable cells”. In series [4], the “effect on meropenem activity against pre-established biofilms” value (from here on “effect on meropenem activity”) is listed as “potentiated the effect of meropenem” and the “reduction of biofilm biomasses” value was around 1 log.
For “5′-GATCAGGTG ggctagctacaacga AACGGCAGG-Chol-TEG-3′ (DNA GATCAGGTGGGCTAGCTACAACGAAACGGCAGG; DNA, 3' {CholTEG}, backbone and methylation of C not given here) [murG-162]”, in series [1], the “biofilm formation (crystal violet)” value is reported as “biofilm inhibition” and the “viable cells within the biofilm (CFU)” value is reported as “significant reduction of viable cells”. Also, the “occurrence of areas thicker than 10 μm in dehydrated biofilms” value in series [2] is reported as “significantly reduced”. Besides, in series [4], the “effect on meropenem activity” value is listed as “potentiated the effect of meropenem” and the “reduction of biofilm biomasses” value is recorded as around 1 log.
“5′-GGCGTTCTG ggctagctacaacga TCGTGGATC-Chol-TEG-3′ (DNA GGCGTTCTGGGCTAGCTACAACGATCGTGGATC; DNA, 3' {CholTEG}, backbone and methylation of C not given here) [murG-366, 10-23 DNAzyme targeting murG RNA transcript, cleavage site nt 366, 3′ cholesterol-TEG]”: in series [1], the “biofilm formation (crystal violet)” value is reported as “biofilm inhibition” and the “viable cells within the biofilm (CFU)” value was “significant reduction of viable cells”. Further, in series [4], the “effect on meropenem activity” value is “potentiated the effect of meropenem” and the “reduction of biofilm biomasses” value is listed as around 1 log.
